# Assay results as given in paper doi:10.1101/615575v1 (biorxiv, 2019).
# Target: PdtaS (PdtaS-EGFP; mtPdtaS; Rv3220c) (Mycobacterium tuberculosis, UniProt P9WGL5)
# Assay: biochemical
# Chain of PdtaS (PdtaS-EGFP; mtPdtaS; Rv3220c) (P9WGL5 whole entry): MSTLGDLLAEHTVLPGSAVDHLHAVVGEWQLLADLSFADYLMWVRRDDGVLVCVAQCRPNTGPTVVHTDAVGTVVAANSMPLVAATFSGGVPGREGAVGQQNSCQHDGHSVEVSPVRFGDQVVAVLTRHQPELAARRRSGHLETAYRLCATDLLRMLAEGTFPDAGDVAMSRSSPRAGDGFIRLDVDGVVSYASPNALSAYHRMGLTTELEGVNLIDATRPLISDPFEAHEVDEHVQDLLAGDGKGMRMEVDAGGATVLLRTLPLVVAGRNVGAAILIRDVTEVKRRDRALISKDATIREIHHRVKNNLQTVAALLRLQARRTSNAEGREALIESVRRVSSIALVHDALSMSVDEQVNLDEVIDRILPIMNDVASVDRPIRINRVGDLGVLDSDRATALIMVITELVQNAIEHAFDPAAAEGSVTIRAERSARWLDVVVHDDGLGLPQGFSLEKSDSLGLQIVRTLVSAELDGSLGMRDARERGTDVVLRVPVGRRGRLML
structure (smiles),measurement,value
Nc1nc2c(ncn2[C@@H]2O[C@@H]3CO[P@](=O)(O)O[C@H]4[C@@H](O)[C@H](n5cnc6c(=O)[nH]c(N)nc65)O[C@@H]4CO[P@](=O)(O)O[C@H]3[C@H]2O)c(=O)[nH]1 [c-di-GMP],Kd,326 ± 107 nM
